# Measurements: ChEMBL document CHEMBL4000175, “Biology-oriented drug synthesis (BIODS): In vitro β-glucuronidase inhibitory and in silico studies on 2-(2-methyl-5-nitro-1H-imidazol-1-yl)ethyl aryl carboxylate derivatives” (Eur J Med Chem, 2017)
# Biological target: T1, Beta-glucuronidase (Bos taurus, UniProt A3KMY8)
# T1 sequence (A3KMY8 whole entry): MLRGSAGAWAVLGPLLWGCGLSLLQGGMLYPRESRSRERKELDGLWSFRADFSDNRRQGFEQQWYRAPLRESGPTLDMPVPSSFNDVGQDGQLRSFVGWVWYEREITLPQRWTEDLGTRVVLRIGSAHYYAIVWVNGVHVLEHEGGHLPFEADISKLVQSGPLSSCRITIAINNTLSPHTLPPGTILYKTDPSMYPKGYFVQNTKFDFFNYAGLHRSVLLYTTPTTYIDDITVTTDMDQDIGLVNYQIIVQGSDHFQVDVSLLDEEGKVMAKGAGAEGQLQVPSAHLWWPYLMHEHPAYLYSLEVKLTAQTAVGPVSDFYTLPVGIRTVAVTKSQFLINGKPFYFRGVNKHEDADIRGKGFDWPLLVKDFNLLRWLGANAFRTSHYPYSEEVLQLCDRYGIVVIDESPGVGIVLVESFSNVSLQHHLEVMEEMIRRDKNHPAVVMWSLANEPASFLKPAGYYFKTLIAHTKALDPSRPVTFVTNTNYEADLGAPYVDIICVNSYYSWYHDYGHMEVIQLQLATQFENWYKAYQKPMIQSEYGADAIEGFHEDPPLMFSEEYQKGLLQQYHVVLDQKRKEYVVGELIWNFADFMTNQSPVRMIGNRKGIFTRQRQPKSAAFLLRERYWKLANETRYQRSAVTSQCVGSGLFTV
# Assay: Inhibition of bovine liver beta glucuronidase using p-nitrophenyl-beta-D-glucuronide as substrate preincubated for 30 mins followed by substrate addition by spectrophotometric method
# Conditions: not given; call rule not given here
row,Compound,IC50
1,CCCCOc1ccc(C(=O)OCCn2c([N+](=O)[O-])cnc2C)cc1,Not Active
2,Cc1ncc([N+](=O)[O-])n1CCOC(=O)c1cccc2ccccc12,Not Active
3,Cc1ncc([N+](=O)[O-])n1CCOC(=O)c1ccc2ccccc2c1,Not Active
4,Cc1cccc(C(=O)OCCn2c([N+](=O)[O-])cnc2C)c1,Not Active

# Same assay, conditions: read-out: IC50
row,Compound,IC50 [µM]
1,Cc1ncc([N+](=O)[O-])n1CCOC(=O)c1ccc(F)cc1Br,6.3
2,Cc1ccccc1C(=O)OCCn1c([N+](=O)[O-])cnc1C,44.2
3,Cc1cc(C(=O)OCCn2c([N+](=O)[O-])cnc2C)ccc1[N+](=O)[O-],7.3
4,Cc1ncc([N+](=O)[O-])n1CCOC(=O)c1cc2ccccc2[nH]1,2.1
5,Cc1ncc([N+](=O)[O-])n1CCOC(=O)c1ccc([N+](=O)[O-])cc1,8.9
6,Cc1ncc([N+](=O)[O-])n1CCOC(=O)c1ccc2ncsc2c1,8.4
7,Clc1ccc(-c2nc3ccccc3[nH]2)cc1Cl,6.33
8,COc1cc(OC)cc(C(=O)OCCn2c([N+](=O)[O-])cnc2C)c1,60.3
9,COc1ccc(C(=O)OCCn2c([N+](=O)[O-])cnc2C)cc1,60.2
10,Cc1ncc([N+](=O)[O-])n1CCOC(=O)c1ccc(Cl)c(Cl)c1,3.6
11,Cc1ncc([N+](=O)[O-])n1CCOC(=O)c1cccc([N+](=O)[O-])c1,27.6
12,COc1ccc(/C=C/C(=O)OCCn2c([N+](=O)[O-])cnc2C)cc1,31.1
13,Cc1ncc([N+](=O)[O-])n1CCOC(=O)c1ccccc1Cl,19.3
14,Cc1ncc([N+](=O)[O-])n1CCOC(=O)c1ccc(F)cc1,12.4
15,Cc1ncc([N+](=O)[O-])n1CCOC(=O)c1cccnc1,32.6
16,Cc1ncc([N+](=O)[O-])n1CCOC(=O)c1cccc(Cl)c1,16.3
17,Cc1ncc([N+](=O)[O-])n1CCOC(=O)c1ccc(Br)cc1,42.6
18,Cc1ncc([N+](=O)[O-])n1CCOC(=O)c1cccc(F)c1,8.1
19,Cc1ncc([N+](=O)[O-])n1CCOC(=O)c1ccccc1Br,48.5
20,Cc1ccc(C(=O)OCCn2c([N+](=O)[O-])cnc2C)cc1,35.5
21,Cc1ncc([N+](=O)[O-])n1CCOC(=O)c1cc(Cl)ccc1Cl,6.2
22,Cc1cc(C)cc(C(=O)OCCn2c([N+](=O)[O-])cnc2C)c1,24.2

# Biological target: T2, Beta-glucuronidase (Bos taurus) (UniProt A3KMY8)
# T2 sequence (whole entry): T1 sequence (A3KMY8 whole entry)
# Assay: Potency index, ratio of D-saccharic acid 1,4-lactone IC50 to compound IC50 for bovine liver beta glucuronidase
# Conditions: not given
row,Compound,Ratio IC50
1,Cc1cc(C(=O)OCCn2c([N+](=O)[O-])cnc2C)ccc1[N+](=O)[O-],7
2,Cc1ncc([N+](=O)[O-])n1CCOC(=O)c1cc2ccccc2[nH]1,24
3,Cc1ncc([N+](=O)[O-])n1CCOC(=O)c1ccc2ncsc2c1,6
4,Cc1ncc([N+](=O)[O-])n1CCOC(=O)c1ccc(Cl)c(Cl)c1,15
